According to patent US20070295251A1, “EPSP SYNTHASES: COMPOSITIONS AND METHODS OF USE” (Athenix Corporation, priority 2006, published 2007):
Changes are numbered by the printed parent chain.

What was measured:
[1] = biological target: GRG1 EPSP synthase variant EVO3, SEQ ID NO:37 (Q-loop core position 2 K, 10 G, 14 P, 16 L) (Pseudomonas putida, UniProt Q683S1, D85K/I93G/I99L/T97P); test: EPSP synthase kinetics (AMPLEX Red fluorescence assay); format: biochemical; settings: in words
Experimental: (§3) Extracts were typically incubated with all assay components except shikimate-3-phosphate and AMPLEX™ Red for 5 minutes at room temperature, and assays were started by adding shikimate-3-phosphate and AMPLEX® Red.
(§4) Following full determination of kinetic parameters, the kinetic constants were determined as follows, adjusting for the quantity of protein determined by either antibody dot-blot analysis as described herein, or by Bradford Assay, as known in the art.

[2] = biological target: GRG1 EPSP synthase variant EVO4, SEQ ID NO:43 (Q-loop core position 2 N, 10 I, 14 A, 16 I) (Pseudomonas putida, UniProt Q683S1, D85N/T97A); test: as above; format: biochemical; settings: in words
Experimental: as §3, §4

EPSP synthase = tested on: EPSP synthase
Experimental: For any one glyphosate concentration, EPSP synthase activity was measured as a function of a broad range of PEP concentrations. The data were fit to the Michaelis-Menten equation using […]® software (Synergy Software) and used to determine the Km (Km apparent) of the EPSP synthase at that glyphosate concentration.

[3] = tested on: BL21*DE3 competent E. coli cells; test: Screening for glyphosate resistance on plates (growth on M63+ agar with glyphosate); format: cell-based; settings: kanamycin, IPTG, glyphosate concentration as in value
Experimental: Library ligations were transformed into BL21*DE3 competent E. coli cells (Invitrogen). The transformations were performed according to the manufacturer's instructions with the following modifications. After incubation for 1 hour at 37° C. in SOC medium, the cells were sedimented by centrifugation (5 minutes, 1000×g, 4° C.). The cells were washed with 1 ml M63+, centrifuged again, and the supernatant decanted. The cells were washed a second time with 1 ml M63+ and resuspended in 200 ul M63+.
For selection of mutant GRG1 enzymes conferring glyphosate resistance in E. coli, the cells were plated onto M63+ agar medium plates containing 50 mM glyphosate, 0.05 mM IPTG (isopropyl-beta-D-thiogalactopyranoside), and 50 ug/ml kanamycin. M63+ medium contains 100 mM KH2PO4, 15 mM (NH4)2SO4, 50 μM CaCl2, 1 μM FeSO4, 50 μM MgCl2, 55 mM glucose, 25 mg/liter L-proline, 10 mg/liter thiamine HCl, sufficient NaOH to adjust the pH to 7.0, and 15 g/liter agar. The plates were incubated for 36 hours at 37° C.

[4] = biological target: GRG1 EPSP synthase variant EVO2, SEQ ID NO:5 (clone L1-C; Q-loop core position 12 A) (Pseudomonas putida, UniProt Q683S1, M95A); test: EPSP synthase kinetics (AMPLEX Red fluorescence assay); format: biochemical; settings: in words, relative to GRG1
Experimental: as §3, §4

[5] = biological target: GRG1 EPSP synthase variant GRG1(EVO1), SEQ ID NO:28 (Q-loop core position 10 M, 12 L, 16 F) (Pseudomonas putida, UniProt Q683S1, I93M/I99F/M95L); test: as above; format: biochemical; settings: in words, relative to GRG1
Experimental: as §3, §4

[6] = tested on: maize plants expressing GRG1(EVO6); test: Glyphosate spray of transgenic maize plants; format: in vivo; settings: 14 mM glyphosate spray
Text: (§1) The grg1 (evo5) gene and grg1 (evo6) genes were each cloned into a plant expression vector suitable for Agrobacterium-mediated transformation, such vector containing at least (1) a promoter capable of expression in a plant cell, (2) a chloroplast peptide leader coding sequence, (3) a transcriptional terminator. The resulting clones, pAX4014 and pAX4032 respectively, were transferred to Agrobacterium as known in the art and described herein, and the resulting Agrobacterium strain used to develop transgenic maize callus and ultimately transgenic maize plants.
(§2) To transgenic plants were sprayed with glyphosate formulations of 14 mM glyphosate after adaptation to soil, and the resistance to the herbicide was scored after two weeks relative to non-transgenic controls.

[7] = tested on: maize plants expressing GRG1(EVO5); test: Glyphosate spray of transgenic maize plants; format: in vivo; settings: 14 mM glyphosate spray
Text: as §1, §2

[8] = Experimental: DNA from grg1 (evo5) was mutagenized by PCR as known in the art, and cloned into pRSF1b (Invitrogen), and a library of mutagenized clones identified by virtue of growth on 50 mM glyphosate.

## C=C(OP(=O)(O)O)C(=O)O [PEP, phosphoenolpyruvic acid]
[1]; vs GRG1
  Km for PEP: virtually identical to GRG1
[2]
  Km for PEP: reasonable, though somewhat elevated

## GRG1(EVO7): variant after mutagenesis of grg1 (evo6) in the Q-loop region (SEQ ID NO:64) (ITSEGVKPVAPFIKCGESGLSVRAFTPIVALSK; GRG1 variant - GRG1(4S-39))
EPSP synthase
  kinetic properties / parameters (in words): further improved kinetic properties over GRG1(EVO6)
[3]
  growth on glyphosate plates (glyphosate resistance in E. coli): glyphosate resistant

## GRG1(EVO8): variant after mutagenesis of grg1 (evo6) in the Q-loop region (SEQ ID NO:65) (ITSEGVKPVAPFIKCGESGLSGRMFPPIVALSK; GRG1 variant - GRG1(4S-60))
EPSP synthase
  kinetic properties / parameters (in words): further improved kinetic properties over GRG1(EVO6)
[3]
  growth on glyphosate plates (glyphosate resistance in E. coli): glyphosate resistant

## O=C(O)CNCP(=O)(O)O [glyphosate, N-phosphonomethylglycine]
[4]
  Ki for glyphosate: improved
[1]; relative to GRG1
  Ki for glyphosate: improved
[5]
  Ki for glyphosate: improved
[2]; relative to GRG1
  Ki for glyphosate: improved
[6]
  Seed Set: YES
  Survival at 2 weeks post-spray: YES
[6]; two weeks
  Chlorosis: NONE
  Stunting: NONE
[7]
  Seed Set: YES
  Survival at 2 weeks post-spray: YES
[7]; two weeks
  Chlorosis: NONE
  Stunting: NONE

B1: GRG1(EVO5): GRG1 Q-loop variant from Library 4 (SEQ ID NO:56) (protein)
chain: MKVTIQPGDLTGIIQSPASKSSMQRACAAALVAKGISEIINPGHSNDDKAARDIVSRLGARLEDQPDGSLQITSEGVKPVAPFIECGESGLSSRIFTPLVALSKEEVTIKGSGSLVTRPMDFFDEILPHLGVKVKSNQGKLPLVIQGPLKPADVTVDGSLSSQFLTGLLLAYAAADASDVAIKVTNLKSRPYIDLTLDVMKRFGLKTPENRNYEEFYFKAGNVYDETKMQRYTVEGDWSGGAFLLVAGAIAGPITVRGLDIASTQADKAIVQALMSANAGIAIDAKEIKLHPADLNAFEFDATDCPDLFPPLVALASYCKGETKIKGVSRLAHKESDRGLTLQDEFGKMGVEIHLEGDLMRVIGGKGVKGAEVSSRHDHRIAMACAVAALKAVGETTIEHAEAVNKSYPDFYSDLKQLGGVVSLNHQFNFS
modifications: GRG1 variant - GRG1(EVO5)
EPSP synthase
  Km / affinity for PEP (in words): good affinity for PEP
EPSP synthase; relative to GRG1
  glyphosate resistance (in words, kinetic analysis): improved glyphosate resistance

B2: GRG1(EVO6): GRG1(EVO5) with N186 to K change (SEQ ID NO:57) (protein)
chain: B1 chain with N186K
modifications: GRG1 variant - GRG1(EVO6)
[8]
  soluble protein: substantial increase in soluble protein

B3: GRG1(5.2.B6): GRG1(EVO5) with V351 to A change (SEQ ID NO:58) (protein)
chain: B1 chain with I95L, N186K
modifications: GRG1 variant - GRG1(EVO7)
[8]
  soluble protein: substantial increase in soluble protein
